Reference: the NIST ThermoML archive (doi:10.1021/je800110r)
Several values for one entry are separate records, joined by “and”; a condition that tells them apart may be missing. Identical values can stand only once.

Conditions: Liquid, Vibrating tube method

CCCCCCCCCC [decane]
Conditions | mass density
313.14 K, 33167 kPa | 739.6 kg/m3
313.14 K, 33192 kPa | 739.6 kg/m3
313.14 K, 33228 kPa | 739.6 kg/m3
313.14 K, 33249 kPa | 739.6 kg/m3
313.14 K, 33282 kPa | 739.6 kg/m3
313.14 K, 33310 kPa | 739.6 kg/m3
313.14 K, 33326 kPa | 739.8 kg/m3
313.14 K, 33356 kPa | 739.6 kg/m3
313.14 K, 33377 kPa | 739.6 kg/m3
313.14 K, 33399 kPa | 739.8 kg/m3
313.14 K, 33423 kPa | 739.6 kg/m3
313.14 K, 33447 kPa | 739.8 kg/m3
313.14 K, 33472 kPa | 739.7 kg/m3
313.14 K, 33490 kPa | 739.8 kg/m3
313.14 K, 33518 kPa | 739.7 kg/m3
313.14 K, 33536 kPa | 739.8 kg/m3
313.14 K, 33561 kPa | 739.7 kg/m3
313.14 K, 33582 kPa | 739.8 kg/m3
313.14 K, 33604 kPa | 739.9 kg/m3
313.14 K, 33629 kPa | 739.9 kg/m3
313.14 K, 33657 kPa | 740 kg/m3
313.14 K, 33682 kPa | 739.9 kg/m3
313.14 K, 33707 kPa | 739.8 kg/m3
313.14 K, 33726 kPa | 739.8 kg/m3
313.14 K, 33748 kPa | 739.9 kg/m3
313.14 K, 33766 kPa | 739.6 kg/m3
313.14 K, 33782 kPa | 739.9 kg/m3
313.14 K, 33804 kPa | 740 kg/m3
313.14 K, 33832 kPa | 740 kg/m3
313.14 K, 33858 kPa | 740 kg/m3
313.14 K, 33880 kPa | 740 kg/m3
313.14 K, 33906 kPa | 740.1 kg/m3
313.14 K, 33924 kPa | 740.1 kg/m3
313.14 K, 33950 kPa | 740 kg/m3
313.14 K, 33978 kPa | 740.2 kg/m3
313.14 K, 33997 kPa | 740.1 kg/m3
313.14 K, 34023 kPa | 740.1 kg/m3
313.14 K, 34043 kPa | 740.1 kg/m3
313.14 K, 34066 kPa | 740.1 kg/m3
313.14 K, 34082 kPa | 740.2 kg/m3
313.14 K, 34105 kPa | 740.2 kg/m3
313.14 K, 34131 kPa | 740.1 kg/m3
313.14 K, 34158 kPa | 740.3 kg/m3
313.14 K, 34181 kPa | 740.1 kg/m3
313.14 K, 34211 kPa | 740.2 kg/m3
313.14 K, 34231 kPa | 740.2 kg/m3
313.14 K, 34264 kPa | 740.2 kg/m3
313.14 K, 34281 kPa | 740.2 kg/m3
313.14 K, 34305 kPa | 740.2 kg/m3
313.14 K, 34333 kPa | 740.3 kg/m3
313.14 K, 34358 kPa | 740.4 kg/m3
313.14 K, 34391 kPa | 740.4 kg/m3
313.14 K, 34414 kPa | 740.4 kg/m3
313.14 K, 34437 kPa | 740.4 kg/m3
313.14 K, 34466 kPa | 740.4 kg/m3
313.14 K, 34503 kPa | 740.5 kg/m3
313.14 K, 34520 kPa | 740.4 kg/m3
313.14 K, 34543 kPa | 740.4 kg/m3
313.14 K, 34560 kPa | 740.5 kg/m3
313.14 K, 34566 kPa | 740.4 kg/m3
313.14 K, 34568 kPa | 740.5 kg/m3
313.14 K, 34571 kPa | 740.4 kg/m3 and 740.5 kg/m3
313.15 K, 1010 kPa | 715.4 kg/m3
313.15 K, 1032 kPa | 715.4 kg/m3
313.15 K, 1055 kPa | 715.5 kg/m3
313.15 K, 1082 kPa | 715.5 kg/m3
313.15 K, 1102 kPa | 715.4 kg/m3
313.15 K, 1122 kPa | 715.5 kg/m3
313.15 K, 1147 kPa | 715.6 kg/m3
313.15 K, 1182 kPa | 715.5 kg/m3
313.15 K, 1217 kPa | 715.7 kg/m3
313.15 K, 1254 kPa | 715.6 kg/m3
313.15 K, 3801 kPa | 717.9 kg/m3
313.15 K, 6798 kPa | 720.3 kg/m3
313.15 K, 6849 kPa | 720.5 kg/m3
313.15 K, 6918 kPa | 720.6 kg/m3
313.15 K, 6929 kPa | 720.5 kg/m3
313.15 K, 7976 kPa | 721.4 kg/m3
313.15 K, 7995 kPa | 721.4 kg/m3
313.15 K, 8013 kPa | 721.4 kg/m3
313.15 K, 8034 kPa | 721.4 kg/m3
313.15 K, 8045 kPa | 721.4 kg/m3
313.15 K, 8059 kPa | 721.4 kg/m3
313.15 K, 8073 kPa | 721.5 kg/m3
313.15 K, 8087 kPa | 721.4 kg/m3
313.15 K, 8102 kPa | 721.4 kg/m3
313.15 K, 8113 kPa | 721.4 kg/m3
313.15 K, 8129 kPa | 721.5 kg/m3
313.15 K, 8649 kPa | 721.9 kg/m3
313.15 K, 8666 kPa | 721.9 kg/m3
313.15 K, 8707 kPa | 721.7 kg/m3
313.15 K, 15697 kPa | 727.3 kg/m3
313.15 K, 15727 kPa | 727.5 kg/m3
313.15 K, 15757 kPa | 727.3 kg/m3
313.15 K, 15781 kPa | 727.5 kg/m3
313.15 K, 15816 kPa | 727.6 kg/m3
313.15 K, 15846 kPa | 727.6 kg/m3
313.15 K, 15873 kPa | 727.6 kg/m3
313.15 K, 17591 kPa | 728.8 kg/m3
313.15 K, 17641 kPa | 728.9 kg/m3
313.15 K, 17664 kPa | 728.8 kg/m3
313.15 K, 17686 kPa | 728.8 kg/m3
313.15 K, 17711 kPa | 728.9 kg/m3
313.15 K, 17734 kPa | 728.9 kg/m3
313.15 K, 20359 kPa | 730.9 kg/m3
313.15 K, 20406 kPa | 730.9 kg/m3
313.15 K, 20562 kPa | 730.8 kg/m3
313.15 K, 20961 kPa | 731.3 kg/m3
313.15 K, 20986 kPa | 731.2 kg/m3
313.15 K, 21097 kPa | 731.3 kg/m3
313.15 K, 21119 kPa | 731.3 kg/m3
313.15 K, 21249 kPa | 731.5 kg/m3
313.15 K, 21278 kPa | 731.5 kg/m3
313.15 K, 21337 kPa | 731.5 kg/m3
313.15 K, 21367 kPa | 731.5 kg/m3
313.15 K, 21711 kPa | 731.8 kg/m3
313.15 K, 21800 kPa | 731.8 kg/m3
313.15 K, 22455 kPa | 732.2 kg/m3
313.15 K, 22492 kPa | 732.4 kg/m3
313.15 K, 22548 kPa | 732.4 kg/m3
313.15 K, 22615 kPa | 732.4 kg/m3
313.15 K, 22970 kPa | 732.6 kg/m3
313.15 K, 22997 kPa | 732.7 kg/m3
313.15 K, 23029 kPa | 732.6 kg/m3
313.15 K, 23052 kPa | 732.6 kg/m3
313.15 K, 23072 kPa | 732.7 kg/m3
313.15 K, 23096 kPa | 732.7 kg/m3
313.15 K, 23131 kPa | 732.8 kg/m3
313.15 K, 23163 kPa | 732.8 kg/m3
313.15 K, 23183 kPa | 732.9 kg/m3
313.15 K, 23218 kPa | 732.9 kg/m3
313.15 K, 23249 kPa | 732.9 kg/m3
313.15 K, 23281 kPa | 733 kg/m3
313.15 K, 23309 kPa | 732.8 kg/m3
313.15 K, 23338 kPa | 733 kg/m3
313.15 K, 23370 kPa | 733 kg/m3
313.15 K, 25526 kPa | 734.6 kg/m3
